GI50 and TGI data for 26 compounds are collected here from PubChem BioAssay (NCI).

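These data come from cells grown in 96-well plates and exposed to compound for 48 hours at five concentrations. The concentration for 50% growth inhibition is given as GI50. TGI is the concentration that stops growth completely.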 Bounds are passed on as bounds.

The experiment concerns MDA-MB-468 breast. The experiment in a line: NCI tumour cell line growth inhibition, 48 h.
In the case of `COc1ccc(Nc2ncc(-c3ccccc3)o2)cc1OC`, the GI50 is above 11.6 µM and the TGI was above 25 µM.
For `O=C(Nc1cc(C(F)(F)F)cc(C(F)(F)F)c1)Nc1ccc(OCc2nnc(-c3ccc(Cl)cc3)o2)c(F)c1`, in that order: 1 µM and 4.17 µM.
With `CNC(C)[C@H]1CCC2C3CCC4C[C@@H](N(C)C(=O)c5ccccc5)CC[C@]4(C)C3CC[C@@]21C` (some centres not stated), the GI50 is 0.854 µM and the TGI was found to be 2.72 µM.
Consider `CNC12C3C4C1C1C2C3C41C(=O)N[C@H](C(=O)N(C)[C@H](C[C@@H](OC(C)=O)c1nc(C(=O)N[C@@H](Cc2ccccc2)C[C@H](C)C(=O)OC)cs1)C(C)C)C1CC1` (some centres not stated), for which the GI50 was 0.0705 µM and the TGI was found to be 1.37 µM.
The like results for `CCOc1ccc(NC(=O)c2cc3ccccc3cc2O)cc1` were, in that order, 64.6 µM and above 100 µM.
Consider `CC(C)c1ccc(/C=N/N=C(N)N)cc1`, for which the GI50 was 1.85 µM and the TGI worked out at 5.07 µM.
`CCOC(=O)Nc1ccc(C(=O)/C=C/c2ccccc2)cc1`: the GI50 is 25.2 µM and the TGI is above 100 µM.
The like results for `CCCCCCCCc1ccc(CCC(N)(CO)CO)cc1` were, in that order, 1.63 µM and 3.05 µM.
The like results for `C[C@@H]1CC[C@@H]2[C@@H]1[C@H](OC(=O)c1ccc3ccccc3c1)[C@]1(C3CCCCC3)C[C@@H](OC(=O)CO)[C@@]2(C)O1` were, in that order, 10.7 µM and 26.2 µM.
The like results for `CC(=O)Oc1ccccc1C(=O)NCCC[Se]C#N` were, in that order, 3.19 µM and 15.6 µM.
Consider `COc1ccc(C2CC(c3cccc(OC)c3)=NN2C(=O)c2cc(OC)c(OC)c(OC)c2)cc1` (configuration not stated), for which the GI50 was 0.484 µM and the TGI is above 100 µM.
As to `NS(=O)(=O)c1cccc(Nc2nc(SCC(=O)c3ccc([N+](=O)[O-])cc3)nc3ccccc23)c1`, the GI50 is 15.6 µM and the TGI came to 43.4 µM.
The like results for `COc1cc2oc(-c3cccc(C(=O)Nc4ccc(C)cc4)c3)cc(=O)c2c(OC)c1OC` were, in that order, 3.88 µM and 24.6 µM.
For `Cc1nc2ccccc2c(/C=C/c2ccccc2)c1C(=O)/C=C/c1ccc(Cl)cc1`, in that order: 1.56 µM and 3.15 µM.
As to `C#C[C@]1(O)CC[C@H]2[C@@H]3CC=C4c5sc(-c6ccc7c(c6)OCO7)nc5CC[C@]4(C)[C@H]3CC[C@@]21C`, the GI50 is 2.96 µM and the TGI was determined as 10 µM.
The like results for `Clc1ccc(N/N=C(\c2ccccc2)c2ccccn2)nc1` were, in that order, 0.0313 µM and 0.316 µM.
For `O=C(Nc1nc(-c2ccccc2)cs1)c1cc(O)c(O)c(O)c1`, in that order: 2.46 µM and 12.7 µM.
For `O=C1c2ccccc2C(=O)c2sc(Nc3ccc(Cl)cc3)nc21`, in that order: 1.98 µM and 4.68 µM.
Consider `CC(=O)N1N=C(c2ccc(Nc3nc(Nc4ccc(F)cc4)nc(Nc4ccc(Cl)cc4)n3)cc2)CC1c1ccc(N(C)C)cc1` (configuration not stated), for which the GI50 was 5.61 µM and the TGI turned out to be 33.8 µM.
Take `COC(=O)c1ccc(NC(N)=NCC(C)(C)COc2ccc(C(F)(F)F)cc2)nc1`: the GI50 is 1.06 µM and the TGI was 2.73 µM.
Consider `O=C(NCCNC(=O)c1ccc(F)cc1)Nc1ccc(-n2cc(-c3ccncc3)c(-c3ccc(Cl)c(O)c3)n2)cc1`, for which the GI50 was 0.297 µM and the TGI was determined as 1.65 µM.
In the case of `NC(=S)N/N=C/c1ccc(OC(=O)COc2ccccc2)cn1`, the GI50 is 2.31 µM and the TGI came out at 7.33 µM.
For `CN(C)c1cccc(/C=C(\C#N)c2ccccc2)c1`, in that order: 0.402 µM and 36.8 µM.
The like results for `C[n+]1cc2cc3c(cc2c2ccccc21)OCO3` were, in that order, 0.503 µM and 3.45 µM.
In the case of `N#CSCC1CC(O)(c2ccccc2)CC(c2ccc(Cl)cc2)O1` (configuration not stated), the GI50 was 5.07 µM and the TGI amounted to 12.9 µM.
For `C=C1[C@@H](O)C[C@H]2C(C)(C)C[C@H](Cl)C[C@]2(C)[C@H]1C[C@H](O)[C@H]1CC(=O)NC1=O`, in that order: 0.0138 µM and 0.124 µM.
